Results taken from patent US20030027981A1, “Urokinase-type plasminogen activator receptor” (priority 1989, published 2003).
One block for each molecule: values may come before it.

Experiments:
u-PAR mRNA [1] = test: Northern blot of u-PAR mRNA in U937 cells; type: cell-based, human; settings: 150 nM PMA, time course
Description: The cells were seeded at 0.5×10^6/ml in RPMI 1640 medium containing 10% FCS, and incubated with 150 nM PMA for the indicated number of hours. After the incubation both the adherent and the non-adherent cells were collected, pooled, and total RNA was isolated as described in Materials and Methods. For the Northern blot analyses, 30 μg of total RNA were electrophoresed in 1.5% agarose gels under denaturing conditions and blotted onto a nitrocellulose filter. The filters were hybridized to a random primed labelled u-PAR cDNA probe (A), or a β-actin cDNA probe (B). The positions of the ribosomal RNA in the Northern blot are indicated to the left.
The human histiocytic lymphoma cell line U937 (American Type Culture Collection (ATCC), CRL 1593) was obtained from Dr. A. Fattorssi (Research Lab. of Aeronautica Militare, Rome, Italy) and cultured in RPMI 1640 medium with 10% heat inactivated fetal calf serum and 2 mM L-glutamine at a density of 0.5×10^6 cells/ml at the onset of the experiment. The medium was supplemented with 100 units/ml of penicillin and 25 ug/ml streptomycin. […]
(§1) Total cellular RNA was isolated from the cells as described by Chomczynsky and Sacchi (1987). The RNA was analyzed by hybridizing Northern blots as described (Lund et al., 1987), except that random primed labelled plasmid probes were used. […]

u-PAR mRNA [2] = test: Northern blot of u-PAR mRNA in A549 cells; type: cell-based, human; settings: 48 hours, PMA 150 nM, mEGF 20 ng/ml, TGF-β1 7.5 ng/ml, dexamethasone 10^−6 M
Description: (§2) The cells were seeded at 0.5×10^6/ml in DMEM and grown to confluence, washed in PBS^+ and kept under serum-free conditions for 48 hours followed by no additions (1, 6), by addition of Dex (10^−6M) (2, 7) PMA (150 nM) (3, 8) mEGF (20 ng/ml) (4, 9) and TGF-β1, (7.5 ng/ml) (5, 10) for 48 hours. After incubation, both the adherent and the non-adherent cells were collected, pooled, and total RNA was isolated as described in Materials and Methods. For the Northern blot analyses, 30 μg of total RNA were electrophoresed in 1.5% agarose gels under denaturing conditions and blotted onto a nitrocellulose filter. The filters were hybridized to a random primed labeled u-PAR cDNA probe. The positions of the ribosomal RNA in the Northern are indicated to the left.
(§3) The human histiocytic lymphoma cell line U937 (American Type Culture Collection (ATCC), CRL 1593) was obtained from Dr. A. Fattorssi (Research Lab. of Aeronautica Militare, Rome, Italy) and cultured in RPMI 1640 medium with 10% heat inactivated fetal calf serum and 2 mM L-glutamine at a density of 0.5×10^6 cells/ml at the onset of the experiment. The medium was supplemented with 100 units/ml of penicillin and 25 ug/ml streptomycin. The human rhabdomyosarcoma (RD) and adenocarcinoma (A549) cell lines (ATCC CCL 136 and ATCC CCl 185, respectively) were obtained from Flow laboratories, Irvine, U.K., and kept in Dulbecco's modified Eagle's medium supplemented with 10% fetal calf serum until confluency, as described earlier (Lund et al., 1988). The cell lines were tested for and found free from Mycoplasma infection. PMA and the other compounds were present during different time periods and in varying concentrations, as indicated for each experiment. The adherent cells were released by a rubber policeman, and harvested for RNA analysis as described (Mayer et al., 1988).
as §1

u-PAR mRNA [3] = test: Northern blot of u-PAR mRNA in RD cells; type: cell-based, human; settings: 48 hours, PMA 150 nM, mEGF 20 ng/ml, TGF-β1 7.5 ng/ml, dexamethasone 10^−6 M
Description: as §2, §3, §1

u-PAR [4] = test: u-PAR protein level in U937 cells by cross-linking of detergent phase to 125I-ATF; type: cell-based, human; settings: increasing time of treatment, PMA 150 nM, dibuturyl cAMP 1 mM
U937 cells = test: Fate of receptor-bound ligands on U937 cells (internalization and degradation); type: cell-based, human
uPAR-bound u-PA = uPAR-bound u-PA (Homo sapiens, UniProt P00749); type: cell-based; settings: peptide 0.5 mg/ml 30 minutes preincubation; PAI-1 0.9 or 4.5 nM
Description: U937 cells were grown in suspension in RPMI 1640 medium supplemented with 5% heat-inactivated fetal calf serum. PMA-stimulation of U937 cells was performed at a cell density of […] cells/ml with 150 nM PMA for 4 days. The adherent cell population was harvested with a rubber scraper and resuspended in PBS. […] The effect of PAI's on the activity of cell-bound u-PA was determined by the addition of varying concentrations of PAI-1 (0.18-18.4 nM) or PAI-2 (1.13-56.7 nM) to the incubations at the same time as the addition of plasminogen. Curves were then constructed of plasmin concentration against time. […] [pln]∞ was calculated from the relationship: [[…]]0) equation.2 where Δ[pln]0 is the initial rate of plasmin generation which was determined in control incubations in the absence of inhibitors. […] Association rate constants (second-order rate constants) were calculated from the slope of the line of double reciprocal plots of kapp against inhibitor concentration.

u-PAR [5] = molecular target: T1, u-PAR (Homo sapiens, UniProt Q03405); test: Release of 125I-labelled DFP-u-PA from PMA-stimulated U937 cells by phospholipases; type: cell-based; settings: phospholipases >5 μg/ml, compared to blind sample
u-PAR [6] = molecular target: T1, u-PAR; test: Chemical cross-linking of 125I-ATF to purified u-PAR; type: binding; settings: unlabelled reagent 100 nM, u-PAR approx. 1 nM, 125I-ATF approx. 1 nM
Description: B) Affinity column eluate was diluted to yield an approximate concentration of u-PAR of 1 nM during the assay. The samples were preincubated alone (lane 2) or in the presence of the following unlabelled reagents at a concentration of 100 nM: bovine serum albumin (lane 3), t-PA (lane 4), plasminogen (lane 5), murine epidermal growth factor (lane 6), ATF (lane 7), active 54 kD u-PA (lane 8), DFP-inactivated 54 kD u-PA (lane 9). After preincubation for 15 min at room temperature, ^125I-labelled ATF (approximately 1 nM) was added, followed by incubation for 1 hour at 4° C. After incubation, chemical cross-linking was performed with DSS, after which the samples were analyzed by SDS-PACE on a 6-16% gradient gel under non-reducing conditions and autoradiography. […] Electrophoretic mobilities of molecular weight standard proteins are inducated (kD).
Cross-linking of u-PAR in complex mixtures or purified fractions to ^125I-labelled ATF was performed as described for solubilized receptor (Nielsen et al., 1988), except that 2 mM disuccinimidylsuberate (DSS) was used for cross-linking. Cross-linking of purified u-PAR to DFP-treated u-PA for analysis by SDS-PAGE and silver-staining was performed in the same manner, except that non-labelled DFP-treated u-PA was used as the ligand.

HT-1080 cells = test: Plasmin release from plasmin-loaded HT-1080 cells; type: cell-based, human
Description: FIG. 24. Plasmin release from HT-1080 cells into serum-free and serum-containing media. Confluent layers of HT-1080 cells were first loaded with plasmin by incubation for 1 hour at 37° C. in serum-free MEM medium (0.5 ml) containing human plasmin (0-5 μg/ml). After rinsing the cell layers three times, they were incubated for 2 hours at 37° C. with either serum-free medium (∘ - - - ∘), medium containing 10% heat-inactivated and plasminogen-depleted fetal calf serum (● - - - ●), or the latter with tranexamic acid (100 μM) (▪ - - - ▪). Plasmin was then assayed in the cell-bound fraction (A) and the media (B). At the time of transfer to new media, there was approximately 28 ng of plasmin bound to the cells from the pretreatment with 2.5 μg of plasmin/well.
In the Examples concerning plasmin binding to cells from medium, human plasmin (approximately 18 CU/mg; Kabi Diagnostica, Stockholm, Sweden) was added to the cultures at final concentrations of 0-5 μg/ml. The cells were incubated for 3 hours at 37° C. before assay of cell-bound and supernatant plasmin (see below). For plasmin release experiments, cells were loaded for 1 hour at 37° C. with 0-5 μg/ml plasmin in serum-free medium, then rinsed three times with MEM.
Plasmin bound to the cell layer was recovered and assayed as follows. After harvest of culture medium, the cells were rinsed three times with PBS (plasmin assays of further rinses were negative); then the bound plasmin was specifically eluted (Miles, L. A., and E. F. Plow, “Binding and activation of plasminogen on the platelet surface”, J. Biol. Chem. 260: 4303-4311, 1985) with a solution of 1 mM tranexamic acid in the same rinsing solution (150 μl/well). Plasmin activity was assayed in eluate samples (50 μl) as above with an incubation time of 3 hours at 37° C. Tranexamic acid at 1 mM had no effect on the thioesterase activity of plasmin in these assays.

cultured cells = settings: plasmin, some cell types (Burtin and Fondaneche, 1988); cited from earlier work

Molecule: CCCCCCCCCCCCCC(=O)O[C@@H]1[C@@H](C)[C@@]2(O)[C@@H](C=C(CO)C[C@]3(O)C(=O)C(C)=C[C@@H]23)[C@@H]2C(C)(C)[C@]12OC(C)=O [PMA, Phorbol 12-myristate 13-acetate]
- u-PAR mRNA level (u-PAR mRNA [1]): maximal effect after 24 hours
- u-PAR mRNA level (u-PAR mRNA [2]): increased
- u-PAR mRNA level (u-PAR mRNA [3]): increased
- u-PAR protein level (signal of 125I-ATF cross-linked to u-PAR) (u-PAR [4]): increase in the strength of signal

Molecule: CCN(CC)CCCC(C)Nc1ccnc2cc(Cl)ccc12 (stereo not shown) [chloroquine]
- Degradation of u-PA:PAI-1 ligand (U937 cells): 20%

Molecule: Gly-Arg-Gly-Asp-Ser (GRGDS; printed: Gly-Arg-Gly-Asp-Ser)
- Rates of inhibition of cell-bound u-PA by PAI-1 in the presence or absence of the peptide (uPAR-bound u-PA): the same

Molecule: TGF-β1: porcine transforming growth factor β-type 1
- u-PAR mRNA level (u-PAR mRNA [2]): increased
- u-PAR mRNA level (u-PAR mRNA [3]): increased

Molecule: Trypsin
- Liberation of 125I-labelled DFP-u-PA from the cell surface (u-PAR [5]): efficiently released all cell surface associated radioactivity

- Competition for binding and cross-linking of 125I-labelled ATF to purified u-PAR (u-PAR [6]): no competition
Molecule: bovine serum albumin: unrelated control protein

- Competition for binding and cross-linking of 125I-labelled ATF to purified u-PAR (u-PAR [6]): no competition
Molecule: epidermal growth factor: murine epidermal growth factor
- u-PAR mRNA level (u-PAR mRNA [2]): increased
- u-PAR mRNA level (u-PAR mRNA [3]): increased

- Competition for binding and cross-linking of 125I-labelled ATF to purified u-PAR (u-PAR [6]): no competition
Molecule: t-PA: tissue-type plasminogen activator

B1: plasmin: human plasmin (Kabi Diagnostica) (protein, UniProt P00747 20-580; P00747 581-810, looked up)
Plasmin heavy chain A: EPLDDYVNTQGASLFSVTKKQLGAGSIEECAAKCEEDEEFTCRAFQYHSKEQQCVIMAENRKSSIIIRMRDVVLFEKKVYLSECKTGNGKNYRGTMSKTKNGITCQKWSSTSPHRPRFSPATHPSEGLEENYCRNPDNDPQGPWCYTTDPEKRYDYCDILECEEECMHCSGENYDGKISKTMSGLECQAWDSQSPHAHGYIPSKFPNKNLKKNYCRNPDRELRPWCFTTDPNKRWELCDIPRCTTPPPSSGPTYQCLKGTGENYRGNVAVTVSGHTCQHWSAQTPHTHNRTPENFPCKNLDENYCRNPDGKRAPWCHTTNSQVRWEYCKIPSCDSSPVSTEQLAPTAPPELTPVVQDCYHGDGQSYRGTSSTTTTGKKCQSWSSMTPHRHQKTPENYPNAGLTMNYCRNPDADKGPWCFTTDPSVRWEYCNLKKCSGTEASVVAPPPVVLLPDVETPSEEDCMFGNGKGYRGKRATTVTGTPCQDWAAQEPHRHSIFTPETNPRAGLEKNYCRNPDGDVGGPWCYTTNPRKLYDYCDVPQCAAPSFDCGKPQVEPKKCPGR
Plasmin light chain B: VVGGCVAHPHSWPWQVSLRTRFGMHFCGGTLISPEWVLTAAHCLEKSPRPSSYKVILGAHQEVNLEPHVQEIEVSRLFLEPTRKDIALLKLSSPAVITDKVIPACLPSPNYVVADRTECFITGWGETQGTFGAGLLKEAQLPVIENKVCNRYEFLNGRVQSTELCAGHLAGGTDSCQGDSGGPLVCFEKDKYILQGVTSWGLGCARPNKPGVYVRVSRFVTWIEGVMRNN
modifications: plasmin
- Plasmin activity recovered from the cells (HT-1080 cells; 2 hours 37° C., 10% serum-containing medium): 40%
- Plasmin activity remaining bound to cells (HT-1080 cells; 2 hours 37° C., fresh serum-free medium): approximately 40%
- Plasmin activity detected in the medium (HT-1080 cells; serum-containing medium): about 11%
- Plasmin activity detected in the medium (HT-1080 cells; serum-free medium): 60%
- Kd (cultured cells): 50 nM
